Laboratory results from ChEMBL document CHEMBL4665867, “Design and synthesis of analogues of the sphingosine-1-phosphate receptor 1 agonist IMMH001 with improved phosphorylation rate in human blood” (Bioorg Med Chem, 2020).

target: T1, Sphingosine kinase 1/2 (Rattus norvegicus, UniProt Q91V26+A6JB73); assay: Prodrug conversion in rat blood assessed as SPHK1/SPHK2-mediated compound phosphorylation by measuring Vmax by LC-MS/MS analysis; assay type: ADME, tissue-based

| SMILES | Vmax |
| --- | --- |
| CCCc1nc(-c2ccc(-c3ccc(CCC(N)(CO)CO)cc3)cc2)co1.Cl | 37.24 pmol/min |
| CCCc1nc(-c2ccc(-c3ccc(CC[C@@](C)(N)CO)cc3)cc2)co1.Cl | 4.13 pmol/min |
| CCCc1nc(-c2ccc(-c3ccc(CC[C@@H](N)CO)cc3)cc2)co1.Cl | 16.15 pmol/min |
| CCCCCCCCc1ccc(CCC(N)(CO)CO)cc1.Cl [FINGOLIMOD HYDROCHLORIDE] | 61.3 pmol/min |

target: T2, Sphingosine kinase 1/2 (Homo sapiens, UniProt Q9NRA0+Q9NYA1); assay: Prodrug conversion in human blood assessed as SPHK1/SPHK2-mediated compound phosphorylation by measuring intrinsic clearance by LC-MS/MS analysis; assay type: ADME, tissue-based

| SMILES | CL |
| --- | --- |
| CCCc1nc(-c2ccc(-c3ccc(CCC(N)(CO)CO)cc3)cc2)co1.Cl | 0.012 µL/min |
| CCCc1nc(-c2ccc(-c3ccc(CC[C@@](C)(N)CO)cc3)cc2)co1.Cl | 0.025 µL/min |
| CCCc1nc(-c2ccc(-c3ccc(CC[C@@H](N)CO)cc3)cc2)co1.Cl | 0.049 µL/min |
| CCCCCCCCc1ccc(CCC(N)(CO)CO)cc1.Cl [FINGOLIMOD HYDROCHLORIDE] | 0.013 µL/min |

target: T2, Sphingosine kinase 1/2; assay: Prodrug conversion in human blood assessed as SPHK1/SPHK2-mediated compound phosphorylation by measuring Vmax by LC-MS/MS analysis; assay type: ADME, tissue-based

| SMILES | Vmax |
| --- | --- |
| CCCc1nc(-c2ccc(-c3ccc(CCC(N)(CO)CO)cc3)cc2)co1.Cl | 0.53 pmol/min |
| CCCc1nc(-c2ccc(-c3ccc(CC[C@@](C)(N)CO)cc3)cc2)co1.Cl | 2.15 pmol/min |
| CCCc1nc(-c2ccc(-c3ccc(CC[C@@H](N)CO)cc3)cc2)co1.Cl | 2.63 pmol/min |
| CCCCCCCCc1ccc(CCC(N)(CO)CO)cc1.Cl [FINGOLIMOD HYDROCHLORIDE] | 0.31 pmol/min |

target: T2, Sphingosine kinase 1/2; assay: Prodrug conversion in human blood assessed as SPHK1/SPHK2-mediated compound phosphorylation by measuring Km by LC-MS/MS analysis; assay type: ADME, tissue-based

| SMILES | Km |
| --- | --- |
| CCCc1nc(-c2ccc(-c3ccc(CCC(N)(CO)CO)cc3)cc2)co1.Cl | 42.62 µM |
| CCCc1nc(-c2ccc(-c3ccc(CC[C@@](C)(N)CO)cc3)cc2)co1.Cl | 86.55 µM |
| CCCc1nc(-c2ccc(-c3ccc(CC[C@@H](N)CO)cc3)cc2)co1.Cl | 54.12 µM |
| CCCCCCCCc1ccc(CCC(N)(CO)CO)cc1.Cl [FINGOLIMOD HYDROCHLORIDE] | 23.7 µM |

target: T1, Sphingosine kinase 1/2; assay: Prodrug conversion in rat blood assessed as SPHK1/SPHK2-mediated compound phosphorylation by measuring Km by LC-MS/MS analysis; assay type: ADME, tissue-based

| SMILES | Km |
| --- | --- |
| CCCc1nc(-c2ccc(-c3ccc(CCC(N)(CO)CO)cc3)cc2)co1.Cl | 85.25 µM |
| CCCc1nc(-c2ccc(-c3ccc(CC[C@@](C)(N)CO)cc3)cc2)co1.Cl | 23.6 µM |
| CCCc1nc(-c2ccc(-c3ccc(CC[C@@H](N)CO)cc3)cc2)co1.Cl | 48.37 µM |
| CCCCCCCCc1ccc(CCC(N)(CO)CO)cc1.Cl [FINGOLIMOD HYDROCHLORIDE] | 64.6 µM |

target: T1, Sphingosine kinase 1/2; assay: Prodrug conversion in rat blood assessed as SPHK1/SPHK2-mediated compound phosphorylation by measuring intrinsic clearance by LC-MS/MS analysis; assay type: ADME, tissue-based

| SMILES | CL |
| --- | --- |
| CCCc1nc(-c2ccc(-c3ccc(CCC(N)(CO)CO)cc3)cc2)co1.Cl | 0.437 µL/min |
| CCCc1nc(-c2ccc(-c3ccc(CC[C@@](C)(N)CO)cc3)cc2)co1.Cl | 0.175 µL/min |
| CCCc1nc(-c2ccc(-c3ccc(CC[C@@H](N)CO)cc3)cc2)co1.Cl | 0.334 µL/min |
| CCCCCCCCc1ccc(CCC(N)(CO)CO)cc1.Cl [FINGOLIMOD HYDROCHLORIDE] | 0.95 µL/min |
